Biological target: T1, JAK2 (Homo sapiens, UniProt O60674, V617F)
T1 construct: their effect on JAK2 protein degradation in SET2 cells; host or cells: SET2 cells (human essential thrombocythemia)
Test: Western blot quantitation of JAK2 degradation in SET2 cells
Assay type: cell-based
Conditions: 8 hours treatment, western blot densitometry vs. DMSO vehicle
Summary of the method: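 SET2 cells (JAK2 V617F, ~82% mutant) treated 8 h at 37° C with 0.5–10 uM compound, ±20 uM MG-132 at top dose. JAK2 measured by western blot densitometry relative to DMSO and graded into degradation bins (A–E).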

T1 sequence (O60674 whole entry V617F): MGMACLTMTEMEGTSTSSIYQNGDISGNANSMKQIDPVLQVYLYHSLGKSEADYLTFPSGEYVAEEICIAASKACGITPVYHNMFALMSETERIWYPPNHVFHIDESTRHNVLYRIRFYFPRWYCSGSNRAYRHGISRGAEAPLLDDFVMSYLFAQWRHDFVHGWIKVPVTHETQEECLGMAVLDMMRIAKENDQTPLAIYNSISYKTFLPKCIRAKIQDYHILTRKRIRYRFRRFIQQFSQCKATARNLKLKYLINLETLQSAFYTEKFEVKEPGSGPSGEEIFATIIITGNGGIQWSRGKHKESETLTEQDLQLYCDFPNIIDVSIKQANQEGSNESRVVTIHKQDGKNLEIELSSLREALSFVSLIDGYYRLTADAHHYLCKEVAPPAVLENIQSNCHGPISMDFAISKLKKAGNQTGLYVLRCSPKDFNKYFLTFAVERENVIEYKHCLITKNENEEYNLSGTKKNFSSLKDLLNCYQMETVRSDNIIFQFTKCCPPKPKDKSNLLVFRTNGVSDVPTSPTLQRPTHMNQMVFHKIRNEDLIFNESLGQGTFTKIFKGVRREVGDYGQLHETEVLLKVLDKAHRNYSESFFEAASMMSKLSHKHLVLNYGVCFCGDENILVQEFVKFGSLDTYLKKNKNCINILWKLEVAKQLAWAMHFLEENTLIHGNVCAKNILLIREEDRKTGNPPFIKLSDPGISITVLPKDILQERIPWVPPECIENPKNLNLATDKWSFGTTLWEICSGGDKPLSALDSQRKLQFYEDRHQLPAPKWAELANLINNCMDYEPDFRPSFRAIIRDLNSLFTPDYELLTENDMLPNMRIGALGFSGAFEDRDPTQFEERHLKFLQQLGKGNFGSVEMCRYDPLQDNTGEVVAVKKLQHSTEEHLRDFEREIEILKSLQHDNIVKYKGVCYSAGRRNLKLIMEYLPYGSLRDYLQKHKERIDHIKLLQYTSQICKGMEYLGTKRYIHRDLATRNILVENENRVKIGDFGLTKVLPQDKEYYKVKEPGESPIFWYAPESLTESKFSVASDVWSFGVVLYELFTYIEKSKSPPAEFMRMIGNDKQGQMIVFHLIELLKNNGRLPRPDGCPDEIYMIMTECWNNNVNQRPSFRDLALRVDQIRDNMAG

COC(=O)N[C@@H]1CC[C@@H](n2c(=O)n(C)c3cnc4[nH]c(-c5cnn(CC(=O)N6CCC(CN7CCN(c8ccc9c(c8)CN(C8CCC(=O)NC8=O)C9=O)CC7)CC6)c5)c(-c5ccc6c(cnn6C(C)C)c5)c4c32)C1 (stereo partly drawn) [Example 41, methyl ((1R,3R)-3-(7-(1-(2-(4-((4-(2-(2,6-dioxopiperidin-3-yl)-1-oxoisoindolin-5-yl)piperazin-1-yl)methyl)piperidin-1-yl)-2-oxoethyl)-1H-pyrazol-4-yl)-8-(1-isopropyl-1H-indazol-5-yl)-3-methyl-2-oxo-3,6-dihydroimidazo[4,5-d]pyrrolo[2,3-b]pyridin-1(2H)-yl)cyclopentyl) carbamate]
JAK2 % Degradation in SET2 (5 μM compound): C (C: ≥20% to <40% degradation)

COC(=O)N[C@@H]1CC[C@@H](n2c(=O)n(C)c3cnc4[nH]c(-c5ccc(C(=O)N6CCC(CN7CCN(c8ccc9c(c8)C(=O)N(C8CCC(=O)NC8=O)C9=O)CC7)CC6)c(F)c5)c(-c5ccc6c(cnn6C(C)C)c5)c4c32)C1 (stereo partly drawn) [Example 32, methyl ((1R,3R)-3-(7-(4-(4-((4-(2-(2,6-dioxopiperidin-3-yl)-1,3-dioxoisoindolin-5-yl)piperazin-1-yl)methyl)piperidine-1-carbonyl)-3-fluorophenyl)-8-(1-isopropyl-1H-indazol-5-yl)-3-methyl-2-oxo-3,6-dihydroimidazo[4,5-d]pyrrolo[2,3-b]pyridin-1(2H)-yl)cyclopentyl) carbamate]
JAK2 % Degradation in SET2 (0.5 μM compound (cells marked **)): B** (B: ≥40% to <60% degradation)

COC(=O)N[C@@H]1CC[C@@H](n2c(=O)n(C)c3cnc4[nH]c(-c5ccc(C(=O)N6CCC(CN7CCN(c8cccc9c8C(=O)N(C8CCC(=O)NC8=O)C9=O)CC7)CC6)cc5)c(-c5ccc6c(cnn6C(C)C)c5)c4c32)C1 (stereo partly drawn) [Example 33, methyl ((1R,3R)-3-(7-(4-(4-((4-(2-(2,6-dioxopiperidin-3-yl)-1,3-dioxoisoindolin-4-yl)piperazin-1-yl)methyl)piperidine-1-carbonyl)phenyl)-8-(1-isopropyl-1H-indazol-5-yl)-3-methyl-2-oxo-3,6-dihydroimidazo[4,5-d]pyrrolo[2,3-b]pyridin-1(2H)-yl)cyclopentyl) carbamate]
JAK2 % Degradation in SET2 (10 μM compound): A (A: ≥600% degradation)
